Test results: ChEMBL document CHEMBL4715703, “Engineering of a Novel Simplified Human Insulin-Like Peptide 5 Agonist” (J Med Chem, 2016)
The source made the active and inactive calls. The calls are words filed in the database; no cut-off is given here. Where a SMILES comes first, the peptide text is derived from it. Bridges are numbered along the chain shown (N, C = ends). Roman numbers before positions name the chains, in order.

Experiments:
Relaxin-3 receptor 2 [1] = target: T1, Relaxin-3 receptor 2 (Homo sapiens, UniProt Q8TDU9); experiment: Displacement of europium-labeled Eu(A)-mINSL5 from human RXFP4 expressed in CHO-K1 cells; type: cell-based
Relaxin-3 receptor 2 [2] = target: T1, Relaxin-3 receptor 2; experiment: Agonist activity at human RXFP4 expressed in CHO-K1 cells assessed as reduction in forskolin-induced cAMP production by pCRE beta-galactosidase reporter assay; type: functional, cell-based
Relaxin-3 receptor 2 [3] = target: T1, Relaxin-3 receptor 2; experiment: Agonist activity at human RXFP4 expressed in CHO-K1 cells assessed as induction of ERK1/2 phosphorylation incubated for 5 mins by Alpha-screen sure-fire assay; type: cell-based; conditions: filed as agonist

T1 sequence (Q8TDU9 whole entry): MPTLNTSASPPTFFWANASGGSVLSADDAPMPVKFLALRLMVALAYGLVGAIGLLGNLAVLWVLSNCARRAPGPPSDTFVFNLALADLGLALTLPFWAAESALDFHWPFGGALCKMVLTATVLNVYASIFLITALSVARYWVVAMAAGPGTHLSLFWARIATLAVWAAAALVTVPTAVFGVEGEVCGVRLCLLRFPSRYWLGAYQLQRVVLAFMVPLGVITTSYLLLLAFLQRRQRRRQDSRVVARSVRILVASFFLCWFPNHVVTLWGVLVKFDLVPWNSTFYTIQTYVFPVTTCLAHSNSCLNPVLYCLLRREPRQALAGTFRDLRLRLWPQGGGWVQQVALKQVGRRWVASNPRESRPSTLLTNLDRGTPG

CC[C@H](C)[C@@H]1NC(=O)[C@H](Cc2ccc(O)cc2)NC(=O)[C@H]([C@@H](C)CC)NC(=O)[C@H](C(C)C)NC(=O)[C@H]([C@@H](C)O)NC(=O)[C@H](CCCNC(=N)N)NC(=O)[C@H]([C@@H](C)CC)NC(=O)[C@H](Cc2ccc(O)cc2)NC(=O)[C@H](CCC(=O)O)NC(=O)[C@H](CC(C)C)NC(=O)CNC(=O)[C@@H](NC(=O)[C@H](CC(C)C)NC(=O)[C@H](CCCNC(=N)N)NC(=O)[C@@H](NC(=O)[C@H](CO)NC(=O)[C@H](CCC(=O)O)NC(=O)[C@@H](N)CCCCN)C(C)C)CSSC[C@@H]2NC(=O)[C@@H](NC(=O)[C@H](CC(C)C)NC(=O)[C@@H](NC(=O)[C@H](CCC(N)=O)NC(=O)[C@H](CC(C)C)NC(=O)[C@H](CC(=O)O)NC(=O)C3CCC(=O)N3)[C@@H](C)O)CSSC[C@H](NC(=O)CNC(=O)[C@H](CCC(=O)O)NC(=O)[C@H]([C@@H](C)O)NC2=O)C(=O)N[C@@H](CO)C(=O)N[C@@H](CCSC)C(=O)N[C@@H]([C@@H](C)O)C(=O)N[C@@H](CC(=O)O)C(=O)N[C@@H](CC(C)C)C(=O)N[C@@H](CO)C(=O)N[C@@H](C)C(=O)N[C@@H](CC(C)C)C(=O)N[C@H](C(=O)O)CSSC[C@@H](C(=O)N[C@@H](C)C(=O)N[C@@H](CO)C(=O)N[C@@H](CO)C(=O)N[C@@H](CCCNC(=N)N)C(=O)N[C@@H](Cc2c[nH]c3ccccc23)C(=O)O)NC1=O (some centres not stated)
Ki (Relaxin-3 receptor 2 [1]): 33.1 nM
EC50 (Relaxin-3 receptor 2 [2]): 4.57 nM
Activity (Relaxin-3 receptor 2 [3]): Active

CC[C@H](C)[C@@H]1NC(=O)[C@H](Cc2ccc(O)cc2)NC(=O)[C@H]([C@@H](C)CC)NC(=O)[C@H](C(C)C)NC(=O)[C@H]([C@@H](C)O)NC(=O)[C@H](CCCNC(=N)N)NC(=O)[C@H]([C@@H](C)CC)NC(=O)[C@H](Cc2ccc(O)cc2)NC(=O)[C@H](CCC(=O)O)NC(=O)[C@H](CC(C)C)NC(=O)CNC(=O)[C@@H](NC(=O)[C@H](CC(C)C)NC(=O)[C@H](CCCNC(=N)N)NC(=O)[C@@H](NC(=O)[C@H](CO)NC(=O)[C@H](CCC(=O)O)NC(=O)[C@@H](N)CCCCN)C(C)C)CSSC[C@H](N)C(=O)N[C@@H]([C@@H](C)O)C(=O)N[C@@H](CC(=O)O)C(=O)NCC(=O)N[C@@H](C)C(=O)N[C@@H](CO)C(=O)N[C@@H](CCSC)C(=O)N[C@@H](CCCCN)C(=O)N[C@@H](CC(=O)O)C(=O)N[C@@H](CC(C)C)C(=O)N[C@@H](CO)C(=O)N[C@@H](C)C(=O)N[C@@H](CC(C)C)C(=O)N[C@H](C(=O)O)CSSC[C@@H](C(=O)N[C@@H](C)C(=O)N[C@@H](CO)C(=O)N[C@@H](CO)C(=O)N[C@@H](CCCNC(=N)N)C(=O)N[C@@H](Cc2c[nH]c3ccccc23)C(=O)O)NC1=O (I: H-KESVRLCGLEYIRTVIYICASSRW-OH / II: H-CTDGASMKDLSALC-OH; disulfide I:7-II:1, I:19-II:14)
Ki (Relaxin-3 receptor 2 [1]): 29.5 nM
EC50 (Relaxin-3 receptor 2 [2]): 20.9 nM
Activity (Relaxin-3 receptor 2 [3]): Active

CC[C@H](C)[C@@H]1NC(=O)[C@H](Cc2ccc(O)cc2)NC(=O)[C@H]([C@@H](C)CC)NC(=O)[C@H](C(C)C)NC(=O)[C@H]([C@@H](C)O)NC(=O)[C@H](CCCNC(=N)N)NC(=O)[C@H]([C@@H](C)CC)NC(=O)[C@H](Cc2ccc(O)cc2)NC(=O)[C@H](CCC(=O)O)NC(=O)[C@H](CC(C)C)NC(=O)CNC(=O)[C@@H](NC(=O)[C@H](CC(C)C)NC(=O)[C@H](CCCNC(=N)N)NC(=O)[C@@H](NC(=O)[C@H](CO)NC(=O)[C@H](CCC(=O)O)NC(=O)[C@@H](N)CCCCN)C(C)C)CSSC[C@H](N)C(=O)N[C@@H]([C@@H](C)O)C(=O)N[C@@H](CC(=O)O)C(=O)NCC(=O)N[C@@H](C)C(=O)N[C@@H](CO)C(=O)N[C@@H](CCSC)C(=O)N[C@@H]([C@@H](C)O)C(=O)N[C@@H](CC(=O)O)C(=O)N[C@@H](CC(C)C)C(=O)N[C@@H](CO)C(=O)N[C@@H](C)C(=O)N[C@@H](CC(C)C)C(=O)N[C@H](C(=O)O)CSSC[C@@H](C(=O)N[C@@H](C)C(=O)N[C@@H](CO)C(=O)N[C@@H](CO)C(=O)N[C@@H](CCCNC(=N)N)C(=O)N[C@@H](Cc2c[nH]c3ccccc23)C(=O)O)NC1=O (I: H-KESVRLCGLEYIRTVIYICASSRW-OH / II: H-CTDGASMTDLSALC-OH; disulfide I:7-II:1, I:19-II:14)
Ki (Relaxin-3 receptor 2 [1]): 145 nM
EC50 (Relaxin-3 receptor 2 [2]): 100 nM

CC[C@H](C)[C@@H]1NC(=O)[C@H](Cc2ccc(O)cc2)NC(=O)[C@H]([C@@H](C)CC)NC(=O)[C@H](C(C)C)NC(=O)[C@H]([C@@H](C)O)NC(=O)[C@H](CCCNC(=N)N)NC(=O)[C@H](C(C)C)NC(=O)[C@H](Cc2ccc(O)cc2)NC(=O)[C@H](CC(=O)O)NC(=O)[C@H](CC(C)C)NC(=O)CNC(=O)[C@@H](NC(=O)[C@H](CC(C)C)NC(=O)[C@H](CCCCN)NC(=O)[C@@H](NC(=O)[C@@H](NC(=O)[C@H](CCC(N)=O)NC(=O)[C@H](CCCNC(=N)N)NC(=O)[C@@H](N)CO)[C@@H](C)O)C(C)C)CSSC[C@H](N)C(=O)N[C@@H](CCCNC(=N)N)C(=O)N[C@@H](CCC(=O)O)C(=O)NCC(=O)N[C@@H](C)C(=O)N[C@@H](CO)C(=O)N[C@@H](CCSC)C(=O)N[C@@H](CCCCN)C(=O)N[C@@H](CCC(=O)O)C(=O)N[C@@H](CC(C)C)C(=O)N[C@@H](CO)C(=O)N[C@@H]([C@@H](C)O)C(=O)N[C@@H](CC(C)C)C(=O)N[C@H](C(=O)O)CSSC[C@@H](C(=O)N[C@@H](C)C(=O)N[C@@H](CO)C(=O)N[C@@H](CO)C(=O)N[C@@H](CCCNC(=N)N)C(=O)N[C@@H](Cc2c[nH]c3ccccc23)C(=O)O)NC1=O (I: H-SRQTVKLCGLDYVRTVIYICASSRW-OH / II: H-CREGASMKELSTLC-OH; disulfide I:8-II:1, I:20-II:14)
Ki (Relaxin-3 receptor 2 [1]): 18.6 nM
EC50 (Relaxin-3 receptor 2 [2]): 33.9 nM

I: H-KESVRLCGLEYIRTVIYICASSRW-OH / II: H-RDLQALCCREGCSMKELSTLC-OH (disulfide I:7-II:8, I:19-II:21, II:7-II:12)
Ki (Relaxin-3 receptor 2 [1]): 5.5 nM
EC50 (Relaxin-3 receptor 2 [2]): 0.35 nM
